Assay results reported in the METLIN SMRT retention time set (Domingo-Almenara et al. 2019).

Assay: gradient 5% acetonitrile 3 min, to 50% in 2 min, to 85% in 15 min, held 3 min, 100 µL/min
Conditions: column: Zorbax Extend-C18 2.1 x 50 mm; eluents: water / acetonitrile, 0.1% formic acid
Outline: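 A Zorbax Extend-C18 column (2.1 × 50 mm, 1.8 μm) run at 100 μL/min with water and acetonitrile, both containing 0.1% formic acid, separated mixtures of ~100 pure standards. The HPLC was coupled to a quadrupole time-of-flight mass spectrometer operated in positive and negative ionization mode, with dead and dwell volumes of 40 μL and 900 μL. Each retention time was taken from a computationally picked adduct peak that was then manually inspected.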

| SMILES | RP-LC retention time [s] |
| --- | --- |
| COc1ccc(CNc2c(C(=O)OC(C)C)cnc3nc(C)ccc23)cc1 | 740 |
| O=C(Nc1nc(-c2ccccc2)cs1)c1ccc(F)cc1 | 995 |
| CCN1CCN(C2CCN(C(=O)c3cc(C)cc(C)c3)CC2)C1=O | 728 |
| COC[C@@H]1CN(Cc2cc(Cl)ccc2F)C[C@H]1c1nc(C)no1 | 639 |
| Fc1cccc(-c2nc(-c3cn(Cc4ccccc4)nn3)no2)c1 | 1020 |
| O=C1c2ccccc2C(=O)N1CCn1ncccc1=O | 603 |
| CCS(=O)(=O)N1CC(=O)N(c2ccc(F)cc2C)C(C)(C(=O)NCc2ccc(F)cc2)C1 (stereo not drawn) | 832 |
| Cc1nc2cc(-c3noc(-c4ccc(F)cc4)n3)ccc2n(C)c1=O | 1030 |
| C=CCn1c(=O)c(=O)n(Cc2ccc(C(=O)N3CCN(c4ncccn4)CC3)cc2)c2ccccc21 | 722 |
| CCC(=O)n1nc(C)c(S(=O)(=O)N2CCC(C)CC2)c1C | 1150 |
| Cc1ccc2c(=O)c3c([nH]c2c1C)CCN(CC(=O)Nc1cc(F)cc(F)c1)C3 | 638 |
| COCC(=O)Nc1nc(-c2ccc3c(c2)N(C)C(=O)C(C)O3)cs1 (stereo not drawn) | 770 |
| CCC(C)NC(=O)Cn1c(=O)cc(-c2nc(C)no2)c2ccccc21 (stereo not drawn) | 755 |
| O=C1[C@H]2CN(Cc3cccc(OC(F)(F)F)c3)C[C@H]2C(=O)N1Cc1ccc2c(c1)OCO2 | 969 |
| COc1ccc(CNC(=O)Cc2cn(C)c3ncccc23)cc1OC | 616 |
| CCN1CCN(CCCNC(=O)c2noc(C)c2Cn2nc(C)cc2C)CC1 | 572 |
| Cn1cnc2c(NCc3ccccc3)nc(NCCO)nc21 | 657 |
| O=C(CCc1nc(-c2cccnc2)no1)NCCc1c[nH]c2ccccc12 | 709 |
| CC(C)N1C(=O)c2cccnc2Sc2cc(NC(=O)Cc3ccc(Cl)cc3)ccc21 | 954 |
| Cc1ccc(NS(=O)(=O)c2cc(-c3[nH]ncc3C(=O)N(C)C)oc2C)c(F)c1 | 678 |

| SMILES | RP-LC retention time [s] |
| --- | --- |
| CCCSCCCNC(=O)c1cc2n(n1)CCCN(Cc1ccc(C)cc1)C2=O | 852 |
| CCC(CO)NCc1ccc(-c2ccc(F)cc2)o1 (stereo not drawn) | 637 |
| Fc1ccc(Cn2cccc2-c2nc(-c3cccnc3)no2)cc1 | 1100 |
| CCc1nc2cc(-c3noc(-c4ccsc4)n3)ccc2o1 | 1100 |
| Cc1cc(C)n(-c2ccnc(N(C)Cc3ccccc3)n2)n1 | 1070 |
| COc1ccc(NC(=O)N2[C@H]3CC[C@@H]2c2cncnc2C3)cc1F | 649 |
| COc1ccccc1CCC(=O)Nc1ccc2c(c1)Sc1ncccc1C(=O)N2C(C)C | 922 |
| Cc1cc(C(=O)Nc2ccc(F)cc2)nc2ccnn12 | 889 |
| CC1(C)CC(=O)c2cn(-c3ccccc3)c(=O)c(C(=O)NCc3cccs3)c2C1 | 924 |
| COc1ccc2[nH]cc(CCNC(=O)c3cc4n(n3)CCCN(Cc3ccc(Cl)cc3)C4=O)c2c1 | 693 |
| Nc1ccc(-c2ccc3ncc4ccc(=O)n(-c5cccc(C(F)(F)F)c5)c4c3c2)cn1 | 653 |
| COc1ccc(-n2ncc3c(=O)n(Cc4nc(-c5cc(OC)c(OC)c(OC)c5)no4)cnc32)cc1 | 927 |
| O=S(=O)(c1ccc(Cl)s1)N1CC(c2nc(-c3ncccn3)no2)C1 | 725 |
| Cc1nc(C2(C)CCN(S(=O)(=O)c3ccc(Cl)cc3C)CC2)no1 | 1040 |
| COc1ccc(CNc2nc(-c3ccccc3)nnc2C)cc1 | 683 |
| O=C(Cn1c(-c2cccs2)cc2cc(F)ccc21)N1CCN(c2ccccn2)CC1 | 761 |
| Cc1cc2[nH]c(C(=O)Nc3cc(F)ccc3F)c(CN3CCOCC3)c2s1 | 730 |
| COc1ccccc1-c1noc(Cn2nc(-c3ccc4c(c3)OCO4)ccc2=O)n1 | 877 |
| O=C(CCS(=O)(=O)c1ccccc1)NCc1ccsc1 | 671 |

Results, then the molecule that gave them:

| RP-LC retention time [s] | SMILES |
| --- | --- |
| 743 | C=C(C)COc1ccc2c(C)c(CCC(=O)N3CCN(c4ccccn4)CC3)c(=O)oc2c1C |
| 711 | O=C(Cn1cccc1-c1nc(-c2ccc(Cl)cc2)cs1)NCCN1CCOCC1 |
| 560 | CN(C)C(=O)c1cc2c(s1)CCC(C(=O)NCCc1ccccn1)C2 (stereo not drawn) |
| 1130 | COC(=O)c1ccccc1Nc1c(-c2ccc(Cl)cc2)nc2cnccn12 |
| 955 | CCCOC(=O)c1cccc(Nc2nc(C(=O)OCC)nc3ccccc23)c1 |
| 941 | COc1ccccc1NC(=O)N1CCCC1c1nc(-c2cccc(Cl)c2)no1 (stereo not drawn) |
| 1200 | CCc1cc(C(=O)Nc2ccc(C(=O)OC)cc2)nc2cc(-c3ccco3)nn12 |
| 545 | CC1CCCCN1CCCNC(=O)CCCN1C(=O)CCn2nc(-c3cccn3C)cc21 (stereo not drawn) |
| 718 | CCNC(=O)C1CCCN(C(=O)c2cc(C)cc(C)c2)C1 (stereo not drawn) |
| 1190 | Cc1nn(-c2ccc(F)cc2)c2nc(N3CCCC(C(=O)NC4CCCCC4)C3)sc12 (stereo not drawn) |
| 683 | O=C(C1CCN(Cc2cc3ccccc3n2Cc2ccccc2)CC1)N1CCOCC1 |
| 668 | COCCNC(=O)c1nnc(-c2ccc(S(=O)(=O)N3CCOCC3)cc2)o1 |
| 939 | COc1cc(Cl)ccc1C(=O)N1C[C@@H]2C[C@H]1C[C@@H]2NC(=O)c1ccccc1 |
| 813 | Cc1ccc(NC(=O)N2CCC(CC(=O)N3CCCCC3)CC2)cc1F |
| 707 | COc1ccc(C2(C(=O)NCC3Cn4cccc4C(=O)N3C)CC2)cc1 (stereo not drawn) |
| 684 | CCOc1ccccc1N1CCN(c2cc(C(=O)O)c3cc(NC(=O)C(C)C)ccc3n2)CC1 |
| 943 | O=C([C@@H]1C[C@H](F)CN1S(=O)(=O)c1ccc(F)c(F)c1)N1CCc2ccccc2C1 |
| 746 | COCCN1C(=O)CCc2cc(NC(=O)c3ccccc3Br)ccc21 |
| 842 | O=C(NCc1ccc(F)cc1)C1CCN(C(=O)c2ncn3c2COC(c2ccc(Cl)cc2)C3)CC1 (stereo not drawn) |
| 969 | CCCn1c(=O)sc2cc(S(=O)(=O)N3CCC(C(=O)Nc4cccc(CC)c4)CC3)ccc21 |
| 816 | CC1(C(=O)NCc2ccc(F)cc2)CN(S(=O)(=O)c2ccccc2)CC(=O)N1C1CC1 (stereo not drawn) |
| 675 | O=C(NC1CCS(=O)(=O)C1)c1ccc(C(=O)c2ccccc2)cc1 (stereo not drawn) |
| 604 | CCc1ccc(C2=C(C)C(N3CCC(C(=O)NCCCN4CCCC4)CC3)=NS2(=O)=O)cc1 |
| 910 | Cc1ccc(C(=O)Nc2cnc(N3CCCCCC3)nc2)s1 |
| 647 | CCOC(=O)C1CCCN(C(=O)CCC(=O)N2CCCn3nc(C)cc32)C1 (stereo not drawn) |

| RP-LC retention time [s] | SMILES |
| --- | --- |
| 791 | CCSc1nnc(NC(=O)c2cc(=O)c(OCc3ccc(F)cc3)co2)s1 |
| 701 | Cc1ccc(-c2cc(N3CCOCC3)c3cc(NC(=O)C4CC4)ccc3n2)cc1 |
| 751 | CC(Oc1ccc(-c2cnc3ccccc3n2)cc1)C(=O)N1CCOCC1 (stereo not drawn) |
| 818 | Cc1ccc(N2CCN(S(=O)(=O)c3cc(-c4nnc(C5CC5)o4)co3)CC2)cc1 |
| 786 | CSc1ccc(CNC(=O)C2CCCN(c3ncnc4c3oc3ccccc34)C2)cc1 (stereo not drawn) |
| 1150 | Cc1ccc(-n2nc(C)c3sc(N4CCCC(C(=O)NC5CCCC5)C4)nc32)cc1 (stereo not drawn) |
| 683 | COC(=O)c1ccccc1NC(=O)CSc1ccc(N2CCCC(C(=O)NC3CC3)C2)nn1 (stereo not drawn) |
| 646 | O=C(CCC(=O)N1CC2CCCN2c2ccccc21)NCCCN1CCCCC1 (stereo not drawn) |
| 1010 | Cc1ccc(C)c(N2CCN(c3ccnc(SCC(=O)Nc4ccc(F)cc4C)n3)CC2)c1 |
| 696 | CCOC(=O)C1CCN(C(=O)C2CN(C(=O)c3ccc(F)c(F)c3)C2)CC1 |
| 739 | COC(=O)c1cccc(NC(=O)N2CCSc3ncccc32)c1 |
| 679 | CN(C)c1ccc2c(c1)CN(C(=O)C1COc3ccccc3O1)CCO2 (stereo not drawn) |
| 787 | COc1ccccc1NC(=O)N1CCC(CNS(=O)(=O)Cc2cccc(F)c2)CC1 |
| 971 | O=C(CCC1CCCC1)NCCC1CCN(C(=O)Nc2cc(F)cc(F)c2)CC1 |
| 1170 | CCOC(=O)c1cc(C2CC2)nc2c1c(=O)n(Cc1ccc(OC)cc1)c(=O)n2C |
| 951 | COC(=O)c1ccccc1NC(=O)C12CCC(C1)C(C)(C)C2=O (stereo not drawn) |
| 1350 | COc1ccccc1N1CCN(c2ccc(-c3nc(-c4ccccc4)no3)cn2)CC1 |
| 767 | CN(C)C(=O)N1CCC(c2nc(CCOc3ccc(F)cc3)no2)C1 (stereo not drawn) |
| 787 | COC(=O)c1c(C)[nH]c(C(=O)N2CCC(CC(=O)NCCC3=CCCCC3)CC2)c1C |
| 846 | Cc1noc(-c2ccc(OC3CN(C(=O)NC4CCCCC4)C3)cc2)n1 |
| 1090 | Cc1ccc(C)c(Cn2nc3ccc(S(=O)(=O)N4CCCCCC4)cn3c2=O)c1 |
| 702 | O=C(CSc1nnc(NC(=O)c2cccc([N+](=O)[O-])c2)s1)Nc1nccs1 |
| 623 | O=C(c1c(F)cccc1F)N1CCN=C1N1CCCCC1 |
| 882 | Cc1nc(-c2cc(S(=O)(=O)N3CCC(C(=O)NCc4cccs4)CC3)c(C)s2)no1 |
